Assay results reported in ChEMBL document CHEMBL3885861, “Open TG-GATES”.

Species: Rattus norvegicus
Assay: Open TG-GATES - Regimen: Daily Repeat
Format: toxicity, organism-based, Sprague-Dawley
Set-up: regimen Daily Repeat, gender Male, age 6 weeks
Conditions: in vivo, po, 0 mg/kg, route gavage, dose level Control; for APTT / Bas / Eos / Fbg / Hb / Ht / Lym / MCH / MCHC / MCV / Mono / Neu / PT / Plat / RBC / Ret / WBC: tissue Blood; for KIDNEY_L / KIDNEY_R / KIDNEY_TOTAL: tissue Kidney; for LIVER: tissue Liver; for A/G / ALP / ALT / AST / BUN / CRE / Ca / Cl / DBIL / GLC / IP / K / LDH / Na / PL / RALB / TBIL / TC / TG / TP / gamma-GTP: tissue Plasma

## CCN(CC)N=O [N-NITROSODIETHYLAMINE]
72 h, time 3 day
  TERMINAL_BW: 240.5 g
  APTT: 18.3 s
  Bas: 0.8%
  Eos: 1.2%
  Fbg: 218.2 mg/dL
  Hb: 13.8 g/dL
  Ht: 39.7%
  Lym: 77.6%
  MCH: 21.7 pg
  MCHC: 34.8%
  MCV: 62.3 fL
  Mono: 2.6%
  Neu: 17.6%
  PT: 12 s
  Plat: 135 x10_4/uL
  RBC: 638.8 x10_4/ul
  Ret: 5.8%
  WBC: 87.8 x10_2/uL
  KIDNEY_L: 1 g
  KIDNEY_R: 1 g
  KIDNEY_TOTAL: 2 g
  LIVER: 10.5 g
  A/G: 1.6
  ALP: 962 IU/L
  ALT: 35.8 IU/L
  AST: 67 IU/L
  BUN: 16.2 mg/dL
  CRE: 0.4 mg/dL
  Ca: 10.8 mg/dL
  Cl: 102.2 meq/L
  DBIL: 0.09 mg/dL
  GLC: 200.6 mg/dL
  IP: 8 mg/dL
  K: 4 meq/L
  LDH: 211.2 IU/L
  Na: 140.2 meq/L
  PL: 153 mg/dL
  RALB: 3.4 g/dL
  TBIL: 0.1 mg/dL
  TC: 82.6 mg/dL
  TG: 79.2 mg/dL
  TP: 5.6 g/dL
  gamma-GTP: 1 IU/L
[…], time 7 day
  TERMINAL_BW: 275.8 g
  APTT: 20.6 s
  Bas: 0%
  Eos: 1%
  Fbg: 217.4 mg/dL
  Hb: 13.5 g/dL
  Ht: 38.7%
  Lym: 79.6%
  MCH: 21.3 pg
  MCHC: 34.9%
  MCV: 61 fL
  Mono: 2.4%
  Neu: 16%
  PT: 11.8 s
  Plat: 142.9 x10_4/uL
  RBC: 634 x10_4/ul
  Ret: 5.8%
  WBC: 109.2 x10_2/uL
  KIDNEY_L: 1.2 g
  KIDNEY_R: 1.1 g
  KIDNEY_TOTAL: 2.3 g
  LIVER: 12.4 g
  A/G: 1.5
  ALP: 863.2 IU/L
  ALT: 32.2 IU/L
  AST: 66.2 IU/L
  BUN: 15 mg/dL
  CRE: 0.4 mg/dL
  Ca: 10.4 mg/dL
  Cl: 103.2 meq/L
  DBIL: 0.1 mg/dL
  GLC: 194.8 mg/dL
  IP: 8.5 mg/dL
  K: 4.1 meq/L
  LDH: 190 IU/L
  Na: 141 meq/L
  PL: 153 mg/dL
  RALB: 3.3 g/dL
  TBIL: 0.2 mg/dL
  TC: 83.2 mg/dL
  TG: 102.8 mg/dL
  TP: 5.5 g/dL
  gamma-GTP: 1 IU/L
[…], time 14 day
  TERMINAL_BW: 325.9 g
  APTT: 21.7 s
  Bas: 1%
  Eos: 0.8%
  Fbg: 216.6 mg/dL
  Hb: 14.7 g/dL
  Ht: 41.9%
  Lym: 82%
  MCH: 21 pg
  MCHC: 35%
  MCV: 60.1 fL
  Mono: 1.8%
  Neu: 13.8%
  PT: 12 s
  Plat: 124.2 x10_4/uL
  RBC: 697 x10_4/ul
  Ret: 4.3%
  WBC: 94.2 x10_2/uL
  KIDNEY_L: 1.3 g
  KIDNEY_R: 1.3 g
  KIDNEY_TOTAL: 2.6 g
  LIVER: 13.5 g
  A/G: 1.5
  ALP: 688.8 IU/L
  ALT: 31 IU/L
  AST: 64.2 IU/L
  BUN: 15 mg/dL
  CRE: 0.5 mg/dL
  Ca: 10.6 mg/dL
  Cl: 101.6 meq/L
  DBIL: 0.086 mg/dL
  GLC: 205 mg/dL
  IP: 8 mg/dL
  K: 4 meq/L
  LDH: 198.4 IU/L
  Na: 141.6 meq/L
  PL: 144.4 mg/dL
  RALB: 3.4 g/dL
  TBIL: 0.1 mg/dL
  TC: 72.8 mg/dL
  TG: 93.6 mg/dL
  TP: 5.8 g/dL
  gamma-GTP: 1 IU/L
[…], time 28 day
  TERMINAL_BW: 396.4 g
  APTT: 21.9 s
  Bas: 0.8%
  Eos: 1.4%
  Fbg: 225 mg/dL
  Hb: 15.5 g/dL
  Ht: 42.3%
  Lym: 80.8%
  MCH: 20.4 pg
  MCHC: 36.6%
  MCV: 55.8 fL
  Mono: 2%
  Neu: 14.8%
  PT: 11.6 s
  Plat: 108.6 x10_4/uL
  RBC: 758.6 x10_4/ul
  Ret: 2.6%
  WBC: 81 x10_2/uL
  KIDNEY_L: 1.3 g
  KIDNEY_R: 1.3 g
  KIDNEY_TOTAL: 2.7 g
  LIVER: 14.9 g
  A/G: 1.3
  ALP: 606.8 IU/L
  ALT: 33 IU/L
  AST: 63.6 IU/L
  BUN: 17.4 mg/dL
  CRE: 0.5 mg/dL
  Ca: 10.3 mg/dL
  Cl: 103 meq/L
  DBIL: 0.092 mg/dL
  GLC: 208.4 mg/dL
